Results taken from patent US20150342964A1, “DEXAMETHASONE POLYMER IMPLANT FOR PAIN” (Warsaw Orthopedic, Inc., priority 2014, published 2015).
Entries after “also recorded” stand apart in the source; their conditions may differ.

Experiments:
[1] = Body weight, side effects and adverse reactions observed over the 57-day rat CCI study; conditions: systemic, sc 0.02 mg/kg every day, 57-day study
[2] = tested on: rat chronic constriction injury (CCI) model; experiment: Thermal Paw Withdrawal Latency Test (thermal hyperalgesia) in rat CCI model of neuropathic pain; conditions: systemic, subcutaneous 0.02 mg/kg every day from day 7 post-surgery; p<0.05
[3] = tested on: rat chronic constriction injury (CCI) model; experiment: von Frey Monofilament Test (mechanical/tactile allodynia) in rat CCI model of neuropathic pain; conditions: systemic, subcutaneous 0.02 mg/kg every day from day 7 post-surgery

Row | Compound | overt side effects or adverse reactions at the site of injection [1] | thermal paw withdrawal responses/latencies relative to both PBS and unloaded PLA pellet [2] | mechanical allodynia (paw withdrawal threshold) relative to either PBS or unloaded pellet [3]
1 | Clc1cccc(Cl)c1N=C1NCCN1 [clonidine] | no overt side effects or adverse reactions at the site of injection; also recorded: did not cause any overt side effects or adverse reactions | increased thermal paw withdrawal latencies on various test days | no effect on paw withdrawal threshold responses
2 | C[C@@H]1C[C@H]2[C@@H]3CCC4=CC(=O)C=C[C@]4(C)[C@@]3(F)[C@@H](O)C[C@]2(C)[C@@]1(O)C(=O)CO [dexamethasone, (8S, 9R, 10S, 11S, 13S, 14S, 16R, 17R)-9-Fluoro-11,17-dihydroxy-17-(2-hydroxyacetyl)-10,13,16-trimethyl-6,7,8,11,12,14,15,16-octahydro-cyclopenta[a]phenanthren-3-one] | no overt side effects or adverse reactions at the site of injection; also recorded: did not cause any overt side effects or adverse reactions | – | –
